Results on two compounds are retold here after patent publication US9351955B2, “Compounds and pharmaceutical compositions thereof for the treatment of cystic fibrosis” (Galapagos NV, priority 2013, dated 2016).

One series concerns the target T1, CYP3A4 (Homo sapiens, UniProt P08684).
T1 construct: tissue BD Gentest; host or cells: human liver microsomes
In words: Time dependent inhibition (TDI) of CYP3A4 in human liver microsomes. The series is classed as in vitro ADME. The procedure: 8.7.11. Time Dependent Inhibition (TDI) 8.7.11.1. Protocol
The mechanism-based inhibition assay for CYP3A4 is carried out to evaluate the presence of any TDI.
A 5 mM stock solution of test compound is prepared in methanol. This stock is serially diluted 1:3 in methanol and then added in duplicates to mixture containing 50 mM potassium phosphate buffer pH 7.4 and human liver microsomes (BD Gentest). Final reaction conditions are as follows: seven test compound concentrations (0.14-100 μM), prepared in duplicates and 2% methanol.
A summary of the specific conditions is shown below.
After finishing the pre-incubation, the reaction is finally started by adding the co-factor mix to the first replica and probe substrate to second replica (opposite from pre-incubation).
After incubation at 37° C., the reaction (aliquot of 50 μL) is terminated with 150 μL acetonitrile:methanol (2:1) solution with internal standard (warfarin). Samples are centrifuged and the supernatant fractions analyzed by LC-MS/MS.
The instrument responses (ratio of test compound and internal standard peak areas) are referenced to those for solvent controls (assumed as 100%) in order to determine the percentage reduction in probe metabolism. […]
A general note: Microsomes from liver hold many membrane-bound enzymes, among them those of drug oxidation.

The next series is described as follows: Lung distribution study. In kind it is in vivo, Sprague-Dawley rats. To be noted: male, Sprague-Dawley, rat, plasma, oral, 10 mg/kg, exposure values. The procedure:
Sprague-Dawley rats (male, 5-6 weeks old) are obtained from Janvier (France). Rats are acclimatized for at least 5 days before treatment and are kept on a 12 h light/dark cycle. Temperature is maintained at approximately 22° C., and food and water are provided ad libitum. Two days before administration of the test compounds, rats may undergo surgery to place a catheter in the jugular vein under isoflurane anesthesia. After the surgery, rats are housed individually. Rats are deprived of food for at least 16 h before oral dosing and 6 h after. Water is provided ad libitum.
8.7.3. Lung Distribution Studies
Compounds are formulated in 0.5% methylcellulose and EtOH/PEG 200/Methylcellulose 0.5% (10/25/65 v/v/v) by the oral route. Test compounds are orally dosed as a single esophageal gavage at 10 mg/kg under a dosing volume of 5 mL/kg. Each group consists of 12 rats. At each time point, typically 1, 3, 6 and 24 h, animals are euthanized and blood and lung samples are collected. Whole blood samples are centrifuged at 1500 g for 10 min and the resulting plasma samples, along with the lung samples, are stored at −20° C. pending analysis.
8.7.4. Quantification of Compound Levels in Plasma and Lung Samples
Lung samples are milled in the presence of ceramic beads and proteins present in plasma and lung samples are precipitated with an organic solvent. Concentrations of each test compound are determined by an LC-MS/MS method in which the mass spectrometer is operated in positive or negative electrospray mode.
For each animal, the lung-to-plasma ratio is determined as the ratio between compound concentration in lung and in plasma. At each sampling time point, mean, standard error of the mean (sem) and coefficient of variation (CV %) are calculated using data from three animals.

T1 sequence (P08684 whole entry): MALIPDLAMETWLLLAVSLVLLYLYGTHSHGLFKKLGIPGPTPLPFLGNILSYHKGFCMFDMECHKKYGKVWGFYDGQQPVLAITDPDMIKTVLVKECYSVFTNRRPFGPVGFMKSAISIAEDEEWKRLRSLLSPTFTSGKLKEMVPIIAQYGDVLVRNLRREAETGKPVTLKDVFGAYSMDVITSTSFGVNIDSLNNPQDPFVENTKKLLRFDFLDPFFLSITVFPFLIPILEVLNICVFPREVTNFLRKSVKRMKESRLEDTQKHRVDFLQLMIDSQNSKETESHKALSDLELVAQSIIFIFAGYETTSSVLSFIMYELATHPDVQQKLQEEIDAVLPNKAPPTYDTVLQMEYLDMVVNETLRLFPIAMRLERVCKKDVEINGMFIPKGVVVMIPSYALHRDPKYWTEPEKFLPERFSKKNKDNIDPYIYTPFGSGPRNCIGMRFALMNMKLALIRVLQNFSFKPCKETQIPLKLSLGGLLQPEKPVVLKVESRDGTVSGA

Turning to `CC1(C)Cc2c(sc(NC(=O)c3ccn[nH]3)c2C(N)=O)C(C)(C)O1` [Compound 2, N-(3-carbamoyl-5,5,7,7-tetramethyl-5,7-dihydro-4H-thieno[2,3-c]pyran-2-yl)-1H-pyrazole-5-carboxamide], the “time-dependent inhibition of CYP3A4” value on CYP3A4 (IC50 without vs with preincubation) is “no evidence for time-dependent inhibition of CYP3A4”. On CYP3A4 (both without and with preincubation, Midazolam or testosterone as probe substrate, human liver microsomes), this compound registered a 50% inhibitory concentration (IC50) greater than 100 µM.
Turning to `CC1(C)Cc2c(sc(NC(=O)C3(CO)CC3)c2C(N)=O)C(C)(C)O1` [Compound 9, 2-(1-(hydroxymethyl)cyclopropanecarboxamido)-5,5,7,7-tetramethyl-5,7-dihydro-4H-thieno[2,3-c]pyran-3-carboxamide], in the series “Lung distribution study”, the AUC(0-t) was determined as 38900 ng·h/mL.

The term IC50 denotes the concentration that gives 50% inhibition. Read a high IC50 as weaker potency in that assay. A word on the AUC(0-t): it is the area under the concentration-time curve up to a stated or last time point.
